# Reference: BindingDB's records for doi:10.1021/acs.jmedchem.6b00594 (Duquesne University, 2016)
# Assays:
# [1] = Inhibition of human FR-alpha receptor expressed in Chinese hamster RT16 cells assessed as antiproliferative activity measured as reduction in cell viability after 96 hrs by Cell-Titer Blue fluorescence analysis
# [2] = Inhibition of human PCFT expressed in Chinese hamster R2/PCFT4 cells assessed as antiproliferative activity measured as reduction in cell viability after 96 hrs by Cell-Titer Blue fluorescence analysis
# [3] = Inhibition of human FR-beta receptor expressed in Chinese hamster D4 cells assessed as antiproliferative activity measured as reduction in cell viability after 96 hrs by Cell-Titer Blue fluorescence analysis
# [4] = Inhibition of human RFC expressed in Chinese hamster PC43-10 cells assessed as antiproliferative activity measured as reduction in cell viability after 96 hrs by Cell-Titer Blue fluorescence analysis
Compound,IC50 [1] [nM],IC50 [2] [nM],IC50 [3] [nM],IC50 [4] [nM]
Nc1nc2[nH]c(CCN(C(=O)C(F)(F)F)c3ccc(C(=O)N[C@@H](CCC(=O)O)C(=O)O)cc3)cc2c(=O)[nH]1,1.1,109,0.45,783
Nc1nc2[nH]c(CCNc3ccc(C(=O)N[C@@H](CCC(=O)O)C(=O)O)cc3)cc2c(=O)[nH]1,3,87,0.62,510
Nc1nc2[nH]c(CCSc3ccc(C(=O)N[C@@H](CCC(=O)O)C(=O)O)cc3)cc2c(=O)[nH]1,0.51,267,0.34,> 1000
CC(=O)N(CCc1cc2c(=O)[nH]c(N)nc2[nH]1)c1ccc(C(=O)N[C@@H](CCC(=O)O)C(=O)O)cc1,4.9,82,1.6,808
Nc1nc2[nH]c(CCN(C=O)c3ccc(C(=O)N[C@@H](CCC(=O)O)C(=O)O)cc3)cc2c(=O)[nH]1,3,89,0.53,642
Nc1nc2[nH]c(CCOc3ccc(C(=O)N[C@@H](CCC(=O)O)C(=O)O)cc3)cc2c(=O)[nH]1,1.9,58,2.6,641
